Consider three compounds from US20220073874A1, “METHODS FOR ENHANCING DIRECT REPROGRAMMING OF CELLS” (UNIVERSITY OF SOUTHERN CALIFORNIA, priority 2020, published 2022).

The subject of series [1] is mouse embryonic fibroblasts (MEFs). The series can be described thus: EdU incorporation (DNA synthesis, S phase) by flow cytometry.
Series [2] shares this test system. The series can be described thus: viable cells by FSC and SSC profile via FACS. The conditions noted are these: 6FDDRR, 4 dpi (FIG. 9L).
Series [3] has the same test system. In words: EU incorporation (transcription rate) by flow cytometry. Type of series: cell-based. The conditions noted are these: Control-Pure and 6FDDRR cells, 4 dpi (FIG. 2L).
Series [4] shares this test system. The series can be described thus: biotinylated-trimethylpsoralen (bTMP) immunofluorescence, negative DNA supercoiling. The conditions noted are these: 100 μM for 15 minutes (FIG. 12A-B). Type of series: cell-based. On the procedure: Biotinylated-trimethylpsoralen (bTMP) Immunofluorescence. One day after addition of N3 media (and without addition of glial cultures), cells were treated with 1 μM aphidicolin for 1.5-2 hours in N3 media. For control experiments, MEFs were treated with or without 100 μM bleomycin prior to incubation with psoralen. Then cells were incubated with 0.3 mg/mL EZ-Link Psoralen-PEG3-Biotin (Thermo Cat. No: 29986) for 15 minutes. Cultures were then exposed to 3 kJ m-2 of […] light (Fotodyne UV Transilluminator 3-3000 with 15W bulbs) for 15 minutes at room temperature in the dark followed by 3 washes in PBS. Then cells were fixed with cold 70% ethanol for 30 minutes at 4° C. followed by another 3 washes in PBS. Cells were then incubated with Alexa Fluor 594 Streptavidin (Thermo Cat. No: 532356) for one hour at room temperature in the dark, washed with PBS 3 times, and then stained with Hoescht (1:1000) for 10 minutes at room temperature in the dark. Coverslips were mounted onto glass slides using lmmuMount and imaged using the Zeiss LSM 800 confocal microscope.

The test system is the same in series [5]. Type of series: cell-based. The settings on record: 6FDD condition, 14 dpi (FIG. 9G).

In the case of `C[C@@]1(CO)[C@H](O)CC[C@@]2(C)[C@H]1CC[C@H]1C[C@@H]3C[C@@]12CC[C@]3(O)CO` [Aphidicolin, aphidicolin], in series [1] (EdU incorporation at 4 dpi, 1 μM for 18 hours, 6FDDRR (FIG. 9J-K)), the “percent of cells in S phase” value is on record as “dramatically reduced”. Moreover, the EdU incorporation result in series [1] (uninfected MEFs, 10 μM for 2 hr (FIG. 12N)) is on record as “did not incorporate EdU”. The “cell count (total viable cells)” value in series [2] is listed as “only slightly reducing”. Moreover, the transcription rates entry in series [3] is on record as “increased”.
On to bleomycin, for which, in series [4], the “biotinylated TMP intercalation” value is given as “decreased”.
With `CO[C@@]12[C@H](COC(N)=O)C3=C(C(=O)C(C)=C(N)C3=O)N1C[C@@H]1N[C@@H]12` [mitomycin C], the iMN conversion entry in series [5] was “impaired”.
